These results are taken from patent publication US20250235462A1, “NOVEL CAPSID ASSEMBLY INHIBITORS” (AM SCIENCES INC, priority 2021, published 2025).

Like-named read-outs stand apart in the source and are kept apart here.

In one series the test system is intracellular HBV DNA. Kind of series: Real-time PCR for intracellular HBV DNA in HepAD38 cells. Format: cell-based, hepatitis B virus (HBV). Particulars: Hepatitis B virus, HePAD38, 65 h, treated for 65 hours, intracellular HBV DNA by real-time PCR. Here is the method:
HepAD38 cells were cultured in DMEM medium (Welgene) supplemented with 200 unit/mL penicillin, 200 μg/mL streptomycin, and 10% FBS. During maintenance and passage, the cells were cultured together with 0.4 μg/mL tetracycline. Two days before the treatment with compounds for inducing HBV replication was started, the medium was replaced with a tetracycline-free complete growth medium. […]
HepAD38 cells were treated with a compound for 65 hours and then recovered, and intracellular HBV DNA was extracted therefrom according to the protocol in the DNeasy Blood & Tissue Kit (Qiagen). The primers and probes used to quantify HBV DNA were 5′-[…]-3′, 5′-[…]-3′, and 5′-/56-FAM/TGT CCT GGT/ZEN/[…]/3IABKFQ/-3′. The HBV DNA was amplified by real-time PCR assay using LightCycler 480 (Roche) (J. Virol., 2018, 92(16):e00339-18). All of the processes were confirmed in duplicate.

The nature of series [1]: Cell viability assay (EZ-Cytox) in HepAD38 cells. As to conditions: human, 65 hours of treatment; for CC50 at 65 h: read-out: Cytotoxicity CC50; for viability at 65 h, 100 µM: read-out: Cytotoxicity % Livability (@100 μM). Format: cell-based. Here is the method:
HepAD38 cells were cultured for 2 days in Dulbecco's Modified Eagle's medium (Welgene, LM001-05) supplemented with 10% FBS without tetracycline. The cells were seeded in 48-well culture plates (1×10^5 cells/well) and treated with each compound at five concentrations (0 μM (0.8% DMSO as a control), 33 μM, 50 μM, 66 μM, and 100 μM). After 65 hours of treatment, viability was measured using EZ-Cytox cell viability assay kit (Daeil Lab Service) according to the manufacturer's instructions. The absorbance was measured at 450 nm using a spectrophotometer (Spark, Tecan). Here, NVR-3-778 (denoted as NVR) was used as a positive control.

In series [2] the target is Protein (capsid assembly) (Hepatitis B virus genotype D subtype ayw, UniProt P03146). Kind of series: Protein inhibition (capsid assembly inhibition), Table 1. The series is classed as biochemical. As to conditions: for EC50: NVR value of the same run in brackets, read-out: Protein EC50.
Sequence of Protein (capsid assembly) (P03146 whole entry): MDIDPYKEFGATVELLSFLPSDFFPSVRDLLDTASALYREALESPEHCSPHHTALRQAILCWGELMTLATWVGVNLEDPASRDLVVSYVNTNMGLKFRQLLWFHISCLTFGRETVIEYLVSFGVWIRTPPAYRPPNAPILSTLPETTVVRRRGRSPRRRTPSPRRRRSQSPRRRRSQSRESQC
The mark [3] stands for this setting: @30 μM, read-out: Protein % inhibition rate (@30 μM).

In the series on intracellular HBV DNA, `COc1cc(N(Cc2nnc3n2CCOCC3)C(=O)Nc2ccc(F)c(Cl)c2)ccn1` [Example 47, 3-(3-Chloro-4-fluorophenyl)-1-(2-methoxypyridin-4-yl)-1-((5,6,8,9-tetrahydro-[1,2,4]triazolo[4,3-d][1,4]oxazepin-3-yl)methyl)urea] came in with an IC50 of 92 nM. Further, in series [1], the CC50 at 65 h was over 100000 nM and the viability at 65 h, 100 µM is 81.2%.
In the series with intracellular HBV DNA, `COc1ccc(N(Cc2nnc3n2CCCCC3)C(=O)Nc2ccc(F)c(Cl)c2)cn1` [Example 44, 3-(3-Chloro-4-fluorophenyl)-1-(6-methoxypyridin-3-yl)-1-((6,7,8,9-tetrahydro-5H-[1,2,4]triazolo[4,3-a]azepin-3-yl)methyl)urea] came in with an IC50 of 50 nM. Further, the inhibition at 30 µM in series [2] (setting [3]) was found to be 82%. The EC50 in series [2] came out at 1400 nM. In series [1], the CC50 at 65 h is over 100000 nM and the viability at 65 h, 100 µM is 103%.
`O=C(Nc1ccc(F)c(Cl)c1)N(Cc1nnc2n1CCOCC2)c1ccc2c(c1)OCO2` [Example 7, 1-(Benzo[d][1,3]dioxol-5-yl)-3-(3-chloro-4-fluorophenyl)-1-((5,6,8,9-tetrahydro-[1,2,4]triazolo[4,3-d][1,4]oxazepin-3-yl)methyl)urea]: in the series with intracellular HBV DNA, inhibition was half-maximal at 30 nM (IC50). Further, in series [2] (setting [3]), the inhibition at 30 µM is 80%. Further, the EC50 in series [2] came to 1000 nM. For the same compound, in series [1], the CC50 at 65 h is over 100000 nM and the viability at 65 h, 100 µM was found to be 96.4%.
In the same order, the values of `O=C(Nc1ccc(F)c(Cl)c1)N(Cc1nnc2n1CCCCC2)c1ccc2ncsc2c1` [Example 16, 1-(Benzo[d]thiazol-6-yl)-3-(3-chloro-4-fluorophenyl)-1-((6,7,8,9-tetrahydro-5H-[1,2,4]triazolo[4,3-a]azepin-3-yl)methyl)urea] are 124 nM, 80.9%, 2200 nM, over 100000 nM and 93.9%.
`COc1ccc(N(Cc2nnc(C)n2C(C)C)C(=O)Nc2ccc(F)c(Cl)c2)cc1` [Example 26, 3-(3-Chloro-4-fluorophenyl)-1-((4-isopropyl-5-methyl-4H-1,2,4-triazol-3-yl)methyl)-1-(4-methoxyphenyl)urea] gave an IC50 with intracellular HBV DNA of 184 nM. For the same compound, the EC50 in series [2] was 6200 nM. In series [2] (read-out: Protein % inhibition rate (@30 μM), @30 μM), the inhibition at 30 µM is 2%. In series [1], the CC50 at 65 h was over 100000 nM and the viability at 65 h, 100 µM was 91.5%.
As to `COCCn1c(CN(C(=O)Nc2ccc(F)c(Cl)c2)c2ccc(OC)nc2)nnc1C(F)(F)F` [Example 52, 3-(3-Chloro-4-fluorophenyl)-1-((4-(2-methoxyethyl)-5-(trifluoromethyl)-4H-1,2,4-triazol-3-yl)methyl)-1-(6-methoxypyridin-3-yl)urea], the IC50 with intracellular HBV DNA is over 1100 nM. For the same compound, in series [1], the CC50 at 65 h is over 100000 nM and the viability at 65 h, 100 µM is 55.4%.
Turning to `COc1ccc(N(Cc2nnc(-c3ccccc3)n2C)C(=O)Nc2ccc(F)c(Cl)c2)cc1` [Example 24, 3-(3-Chloro-4-fluorophenyl)-1-(4-methoxyphenyl)-1-((4-methyl-5-phenyl-4H-1,2,4-triazol-3-yl)methyl)urea], the IC50 with intracellular HBV DNA is over 3300 nM. Also, in series [2] (setting [3]), the inhibition at 30 µM was -1%. For the same compound, in series [1], the CC50 at 65 h was over 100000 nM.
As to `COc1ccc(N(Cc2nnc(C(F)(F)F)n2CCO)C(=O)Nc2ccc(F)c(Cl)c2)cn1` [Example 50, 3-(3-Chloro-4-fluorophenyl)-1-((4-(2-hydroxyethyl)-5-(trifluoromethyl)-4H-1,2,4-triazol-3-yl)methyl)-1-(6-methoxypyridin-3-yl)urea], the IC50 in the series with intracellular HBV DNA is over 1100 nM. Besides, in series [1], the CC50 at 65 h is over 100000 nM and the viability at 65 h, 100 µM was determined as 101%.
In the same order, the values of `O=C(Nc1ccc(F)c(Cl)c1)N(Cc1nnc2n1CCOCC2)c1ccnc(O)c1` [Example 46, 3-(3-chloro-4-fluorophenyl)-1-(2-hydroxypyridin-4-yl)-1-((5,6,8,9-tetrahydro-[1,2,4]triazolo[4,3-d][1,4]oxazepin-3-yl)methyl)urea] are over 1100 nM, over 100000 nM and 90.5%.
The like results for `COCCn1c(CN(C(=O)Nc2ccc(F)c(Cl)c2)c2ccc(OC)nc2)nnc1C(F)F` [Example 51, 3-(3-Chloro-4-fluorophenyl)-1-((5-(difluoromethyl)-4-(2-methoxyethyl)-4H-1,2,4-triazol-3-yl)methyl)-1-(6-methoxypyridin-3-yl)urea] were, in that order, over 1100 nM, over 100000 nM and 84.2%.
In the series on intracellular HBV DNA, `O=C(Nc1ccc(F)c(Cl)c1)N(Cc1nnc2n1CCCCC2)c1ccc(F)c(F)c1` [Example 22, 3-(3-Chloro-4-fluorophenyl)-1-(3,4-difluorophenyl)-1-((6,7,8,9-tetrahydro-5H-[1,2,4]triazolo[4,3-a]azepin-3-yl)methyl)urea] had an IC50 of 400 nM. For the same compound, the inhibition at 30 µM in series [2] (setting [3]) came out at 43%. The EC50 in series [2] stood at 2600 nM. Also, in series [1], the CC50 at 65 h was over 100000 nM and the viability at 65 h, 100 µM is 92.9%.
The like results for `O=C(Nc1cccc(Cl)c1)N(Cc1nnc2n1CCCC2)c1ccc2c(c1)OCO2` [Example 41, 1-(Benzo[d][1,3]dioxol-5-yl)-3-(3-chlorophenyl)-1-((5,6,7,8-tetrahydro-[1,2,4]triazolo[4,3-a]pyridin-3-yl)methyl)urea] were, in that order, 230 nM, 59%, 2900 nM, over 100000 nM and 97.1%.
With `COc1ccc(N(Cc2nnc(C(F)F)n2CCO)C(=O)Nc2ccc(F)c(Cl)c2)cn1` [Example 53, 3-(3-Chloro-4-fluorophenyl)-1-((5-(difluoromethyl)-4-(2-hydroxyethyl)-4H-1,2,4-triazol-3-yl)methyl)-1-(6-methoxypyridin-3-yl)urea], the IC50 in the series with intracellular HBV DNA was over 1100 nM. Further, in series [1], the CC50 at 65 h was over 100000 nM and the viability at 65 h, 100 µM worked out at 99.1%.
In the series with intracellular HBV DNA, `COc1ccc(N(Cc2nnc(C(F)F)n2C)C(=O)Nc2ccc(F)c(Cl)c2)cn1` [Example 48, 3-(3-Chloro-4-fluorophenyl)-1-((5-(difluoromethyl)-4-methyl-4H-1,2,4-triazol-3-yl)methyl)-1-(6-methoxypyridin-3-yl)urea] came in with an IC50 of over 1100 nM. In series [1], the CC50 at 65 h was over 100000 nM and the viability at 65 h, 100 µM turned out to be 102%.
In the same order, the values of `COc1ccc(N(Cc2nnc(C(F)(F)F)n2C)C(=O)Nc2ccc(F)c(Cl)c2)cn1` [Example 49, 3-(3-Chloro-4-fluorophenyl)-1-(6-methoxypyridin-3-yl)-1-((4-methyl-5-(trifluoromethyl)-4H-1,2,4-triazol-3-yl)methyl)urea] are 438 nM, over 100000 nM and 55.9%.
Take `CN(C)c1ccc(N(Cc2nnc3n2CCCCC3)C(=O)Nc2ccc(F)c(Cl)c2)cc1` [Example 34, 3-(3-Chloro-4-fluorophenyl)-1-(4-(dimethylamino)phenyl)-1-((6,7,8,9-tetrahydro-5H-[1,2,4]triazolo[4,3-a]azepin-3-yl)methyl)urea]: the IC50 in the series with intracellular HBV DNA was over 3300 nM. The inhibition at 30 µM in series [2] (setting [3]) is -7%.

As usually defined, the IC50 is the midpoint of a concentration-inhibition curve. The CC50 is the concentration that lowers cell viability or growth by half. By inhibition is commonly meant the relative decrease from the control value, in per cent. One may read the EC50 as the concentration giving half of the maximal effect.
